Values quoted from earlier work, collected in US20080011293A1, “Stable Xylometazoline and Oxymetazoline Solution” (priority 1999, published 2008).
Where two headings read alike, the source gives them in different places.

Tested on: Pseudomonas aeruginosa

SMILES | concentration above which the inhibitory effect sets in (pH of 5.6 adjusted using HCl and NaOH) | concentration above which the inhibitory effect sets in (pH of 7.4 (neutral)) | concentration required to trigger the inhibitory effect (under acid conditions)
OCC(O)CO [glycerol] | above 25 % by weight | above 30 % by weight | 
OC[C@@H](O)[C@@H](O)[C@H](O)[C@@H](O)CO [sorbitol] |  | identical | 40 % by weight
